pIC50: −log10 of the molar value.
Experiments:
[1] = test system: NCI-H2110 NSCLC cell line; assay: Ex vivo proliferation assay, 72 h exposure; assay type: cell-based; conditions: Homo sapiens; NCI-H2110, 72 h of exposure; read-out: 3424 IC50
Description: (§1) Exponentially growing cells were inoculated. After 24 h, the test compound OBI-3424 was added. After addition of the test compound OBI-3424, plates were incubated in a standard tissue incubator at 37° C. for the indicated hours. At the end of the experiment, viable cells were detected using the CellTiter Glo (CTG) assay kit or AlamarBlue. Drug concentrations (IC50) resulting in 50% growth inhibition relative to untreated control were calculated using XLfit (IDBS, Boston, MA) or Prism 6 (GraphPad, San Diego, CA).
(§2) After exposing the hepatocellular carcinoma cell lines to compound OBI-3424 for 96 h and exposing the NSCLC cell lines to compound OBI-3424 for 72 h, the IC50 value was determined by ex vivo proliferation assay, and the expression of AKR1C3 protein in hepatocellular carcinoma cell lines was determined by Western blotting (tubulin was used as loading control). The expression data of AKR1C3 RNA in the hepatocellular carcinoma cell lines and in the NSCLC cell lines were from CrownBio database (https://db.crownbio.com/Crownbio/OncoExpress_Login.aspx).

NCIH1755 NSCLC cell line = assay: Ex vivo proliferation assay, 72 h exposure; assay type: cell-based; conditions: Homo sapiens, NCI-H1755; NCIH1755, 72 h of exposure; read-out: 3424 IC50
Description: as §1, §2

NCI-H23 NSCLC cell line = assay: Ex vivo proliferation assay, 72 h exposure; assay type: cell-based; conditions: Homo sapiens; NCI-H23, 72 h of exposure; read-out: 3424 IC50
Description: as §1, §2

NCI-H522 NSCLC cell line = assay: Ex vivo proliferation assay, 72 h exposure; assay type: cell-based; conditions: Homo sapiens; NCI-H522, 72 h of exposure; read-out: 3424 IC50
Description: as §1, §2

[2] = test system: NCI-H2228 NSCLC cell line; assay: Ex vivo proliferation assay, 72 h exposure; assay type: cell-based; conditions: Homo sapiens; NCI-H2228, 72 h of exposure; read-out: 3424 IC50
Description: as §1, §2

[3] = test system: NCI-H1944 NSCLC cell line; assay: Ex vivo proliferation assay, 72 h exposure; assay type: cell-based; conditions: Homo sapiens; NCI-H1944, 72 h of exposure; read-out: 3424 IC50
Description: as §1, §2

NCIH2106 NSCLC cell line = assay: Ex vivo proliferation assay, 72 h exposure; assay type: cell-based; conditions: Homo sapiens; NCIH2106, 72 h of exposure; read-out: 3424 IC50
Description: as §1, §2

[4] = test system: NCI-H1792 NSCLC cell line; assay: Ex vivo proliferation assay, 72 h exposure; assay type: cell-based; conditions: Homo sapiens; NCI-H1792, 72 h of exposure; read-out: 3424 IC50
Description: as §1, §2

[5] = test system: NCI-H1563 NSCLC cell line; assay: Ex vivo proliferation assay, 72 h exposure; assay type: cell-based; conditions: Homo sapiens; NCI-H1563, 72 h of exposure; read-out: 3424 IC50
Description: as §1, §2

[6] = test system: cell lines derived from T-ALL with high AKR1C3 expression; assay: Ex vivo cytotoxicity in leukemia cell lines (summary); assay type: cell-based, human
Description: Leukemia cell lines were suspended in RPMI medium supplemented with FBS (Biosera), while ALL PDX cells were cultured in QBSF medium (Quality Biological Inc.,) supplemented with Flt-3 ligand (20 ng/ml, BioNovus Life Sciences) or IL7 (10-20 ng/ml, Jomar Life Research). Cells were inoculated according to the optimal cell density and incubated for 3h or overnight (37° C., 5% CO2). PDX cells and leukemia cell lines were treated with OBI-3424 ([…]) or medium control for 48 or 72 h, respectively. Viability was determined using Alamar Blue reduction assay or Cell Titer-Glo Luminescent Cell Viability Assay (Promega). The half-maximal inhibitory concentration (IC50) was used to calculate the interpolation of nonlinear regression curves by GraphPad Prism 7 software.
In order to evaluate the potential anti-leukemia activity of OBI-3424, ex vivo cytotoxicity assays were performed on a variety of leukemia cell lines. […] The difference in IC50 values between cell lines with high/medium AKR1C3 expression and low expression was statistically significant (P=0.0016).

- pIC50 [1]: 8.96
- pIC50 (NCI-H23 NSCLC cell line): < 6.00
- pIC50 (NCI-H522 NSCLC cell line): < 6.00
- pIC50 [2]: 9.68
- pIC50 [3]: 8.64
- pIC50 [4]: 8.35
- pIC50 [5]: 8.60
SMILES: C[C@H](OP(=O)(N1CC1)N1CC1)c1ccc([N+](=O)[O-])c(Oc2cccc(C(=O)N(C)C)c2)c1 [OBI-3424]
- pIC50 (NCIH1755 NSCLC cell line): 8.09
- pIC50 (NCIH2106 NSCLC cell line): < 6.00
- IC50 values [6]: low nmol/L range

Reference: patent publication US20240401144A2, “PRIMER-PROBE COMPOSITION, KIT, AND DETECTION METHOD” (ASCENTAWITS PHARMACEUTICALS, LTD., priority 2021, published 2024)
